The values below come from publication PMC10402266, “Reaction hijacking inhibition of Plasmodium falciparum asparagine tRNA synthetase” (Research Square, 2023).

What all share (assay type): biochemical
The target of test [1] is T1, PfAsnRS (Plasmodium falciparum cytoplasmic asparaginyl tRNA synthetase) (Plasmodium falciparum, UniProt O96198).
T1 construct: gene PF3D7_0211800; recombinant wildtype PfAsnRS, His-tag removed
Description: ATP consumption assay of recombinant enzyme without tRNA, synthetic adduct.

Test [2] concerns the target T2, PfAsnRS (Plasmodium falciparum cytoplasmic asparaginyl tRNA synthetase) (Plasmodium falciparum, UniProt O96198, R487S).
T2 construct: gene PF3D7_0211800; recombinant PfAsnRSR487S
T2 sequence (O96198 1-610 R487S): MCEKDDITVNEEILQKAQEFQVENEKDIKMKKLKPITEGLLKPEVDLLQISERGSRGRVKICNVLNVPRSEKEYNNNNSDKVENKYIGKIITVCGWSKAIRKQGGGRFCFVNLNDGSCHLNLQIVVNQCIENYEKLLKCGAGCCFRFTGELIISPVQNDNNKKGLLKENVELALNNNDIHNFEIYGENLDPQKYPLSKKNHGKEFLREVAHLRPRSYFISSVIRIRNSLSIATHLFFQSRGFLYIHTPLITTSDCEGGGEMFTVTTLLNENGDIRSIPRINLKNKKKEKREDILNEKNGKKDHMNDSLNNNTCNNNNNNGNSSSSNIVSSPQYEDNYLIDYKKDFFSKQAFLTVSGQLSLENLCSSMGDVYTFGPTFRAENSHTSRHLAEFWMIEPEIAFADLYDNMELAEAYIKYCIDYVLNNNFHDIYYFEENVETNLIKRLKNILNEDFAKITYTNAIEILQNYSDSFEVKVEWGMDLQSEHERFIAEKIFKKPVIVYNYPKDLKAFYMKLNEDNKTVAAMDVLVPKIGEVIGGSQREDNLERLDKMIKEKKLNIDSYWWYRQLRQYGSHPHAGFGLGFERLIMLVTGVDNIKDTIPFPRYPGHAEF
Description: ATP consumption assay of recombinant mutant enzyme with tRNA.

Test [3] deals with T1, PfAsnRS (Plasmodium falciparum cytoplasmic asparaginyl tRNA synthetase). Nature of the test: ATP consumption assay of recombinant enzyme with tRNA; Asn adduct found by LC-MS.
Test [4] shares this target. Nature of the test: ATP consumption assay of recombinant enzyme.

For `NC(=O)C[C@H](N)C(=O)NS(=O)(=O)c1cccc(-c2cc3ncnc(N)c3s2)c1` [Asn-OSM-S-106], in test [1], the IC50 (as a rule, the concentration that inhibits the measured activity by half) is listed as 2.6 / 3.3 μM. In the case of `Nc1ncnc2cc(-c3cccc(S(N)(=O)=O)c3)sc12` [OSM-S-106], the IC50 in test [2] is 26.3 µM; in test [3], 3.6 µM. For the compound `Nc1ncnc2c1ncn2[C@@H]1O[C@H](COS(N)(=O)=O)[C@@H](O)[C@H]1O` [AMS, adenosine 5’-sulfamate], the IC50 in test [4] turned out to be 3.7 nM.
